# System: SUM149PT spheroids with HUVEC/MSC, viability
# Experiment: Anticancer human tumor SUM149PT cell line growth inhibition [GQUAD];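 also: spheroids exposed to drugs for seven days before readout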;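 as to viability, T/C: percent viability relative to DMSO vehicle control taken as 100%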
# Conditions: for IC50: curve of first compound; for viability, T/C: stronger effect = lower value
# Excerpt: DNA G-quadruplex Stabilizer Agents in Combinations in Complex Spheroids
# A high-throughput screen of multi-cell type tumor spheroids was designed to identify active combinations of DNA G-quadruplex stabilizer agents and targeted small molecules. Complex spheroids include a stromal component modeled by human endothelial cells (HUVEC) and fibroblasts modeled by human mesenchymal stem cells (MSCs). The concentration ranges selected for each drug and investigational agent were based upon clinically achievable concentrations if the clinical Cmax of the agent was known.
# Compounds. The drugs and investigational agents: pidnarulex (CX-5461; NSC782164), APTO-253 (NSC789042), BRACO-19 (NSC847499), peposertib (NSC802822), ceralasertib (NSC780249), elimusertib (NSC800525), camonsertib (NSC841442), AZD-1390 (NSC803789), olaparib (NSC753686), talazoparib (NSC767125), ART-558 (NSC835418), sotorasib (NSC818433), MRTX-1133 (NSC836407), SN-38 (NSC673596), topotecan (NSC609699), etoposide (NSC141540), doxorubicin (NSC123127), gemcitabine (NSC613327), 5-fluorouracil (NSC19893), paclitaxel (NSC125973), vemurafenib (NSC761431), panobinostat (NSC761190), R-306465 (JNJ-16241199; NSC773264), adavosertib (NSC754352), TP-3654 (NSC805149), carboplatin (NSC241240), KSQ-4279 (NSC840948), and staurosporine (NSC755774) were obtained from the National Cancer Institute (NCI) Developmental Therapeutics Program Chemical Repository (34). The FDA-approved anticancer drug set is available from the NCI Developmental Therapeutics Program. […] The stock solutions were prepared in dimethyl sulfoxide (DMSO, Sigma-Aldrich, St. Louis, MO, cat. D2650) at 800-fold the tested concentration and stored at -70 degrees C prior to their use. All drugs and investigational agents were tested over a range starting from a high concentration at or near the clinical Cmax and decreasing in half-log increments. If the clinical Cmax for an agent had not been determined, the highest concentration tested was 10 microM.
# 2.3 Cell Culture. All cells were maintained in an incubator at 37 degrees C and 5% CO2 with 95% humidity. The PDC lines were cultured according to standard operating procedures established by the NCI PDMR. All PDCs were thawed and cultured in Matrigel-coated flasks prepared with a working solution of 1X Ham's F-12 nutrient mix, without supplementation (Invitrogen, cat. 11765054), 100 U/mL penicillin-streptomycin (Invitrogen, cat. 15140122), and 2.5% Matrigel (Corning Inc., cat. 354248) for the first three passages. The 857933-349-R-J2-PDC line was cultured in 6C/Colon 1B media, which includes advanced DMEM/F-12 (Thermo Fisher Scientific, cat. 12634028), 10 mM HEPES (Thermo Fisher Scientific, cat. 15630080), 1X GlutaMAX supplement (Thermo Fisher Scientific, cat. 35050061), 0.1 mg/mL primocin (InvivoGen, cat. ant-pm-2), 10% defined fetal bovine serum, heat inactivated (HyClone Laboratories Inc., cat. SH30070.03HI), 50% L-WRN conditioned media (ATCC, cat. CRL-3276), 1.25 mM N-Acetyl-L-cysteine (Sigma-Aldrich, cat. A9165), 10 mM nicotinamide (Sigma-Aldrich, cat. N0636), 1X B-27 supplement (Thermo Fisher Scientific, cat. 17504044), 1X N-2 supplement (Thermo Fisher Scientific, cat. 17502048), 10 microM Y-27632 dihydrochloride (Tocris Bioscience, cat. 1254), and 50 ng/mL human EGF recombinant protein (Thermo Fisher Scientific, cat. PHG0311). The 485176-168-R4-J1-PDC line was cultured in Panc media, which includes all 6C/Colon 1B media components plus 100 ng/mL human FGF-10 (Thermo Fisher Scientific, cat. 100-26), 500 nM SB-431542 (Selleckchem, cat. S1067), and gastrin (Tocris, cat. 3006).
# […]
# [1] = second compound 0.0316 µM, first compound 0.0316 µM
# [2] = second compound 0.0316 µM, first compound 0.316 µM
# [3] = second compound 0.1 µM, first compound 0.0316 µM
# [4] = second compound 0.1 µM, first compound 0.316 µM
# [5] = second compound 0.316 µM, first compound 0.0316 µM
# [6] = second compound 0.316 µM, first compound 0.316 µM
# [7] = second compound 1 µM, first compound 0.0316 µM
# [8] = second compound 1 µM, first compound 0.316 µM
# [9] = second compound 3.16 µM, first compound 0.0316 µM
# [10] = second compound 3.16 µM, first compound 0.316 µM
# [11] = second compound 10 µM, first compound 0.0316 µM
# [12] = second compound 10 µM, first compound 0.316 µM
structure (smiles),measurement,setting,value
CC1COCCN1c1cc(C2(O)CC3CCC(C2)O3)c2cnn(-c3ccn[nH]3)c2n1 (centres undefined) + Cc1[nH]c2ccc(F)cc2c1-c1nc2c3cccnc3c3ncccc3c2[nH]1,IC50,second compound 0.0316 µM,73.8 nM
same,IC50,second compound 0.1 µM,77.8 nM
same,IC50,second compound 0.316 µM,84.1 nM
same,IC50,second compound 1 µM,76 nM
same,IC50,second compound 3.16 µM,71.1 nM
same,IC50,second compound 10 µM,61.9 nM
same,"viability, T/C",[1],74.5%
same,"viability, T/C","second compound 0.0316 µM, first compound 0.1 µM",40.2%
same,"viability, T/C",[2],27.5%
same,"viability, T/C","second compound 0.0316 µM, first compound 1 µM",23.9%
same,"viability, T/C","second compound 0.0316 µM, first compound 3.16 µM",22%
same,"viability, T/C","second compound 0.0316 µM, first compound 10 µM",15.9%
same,"viability, T/C",[3],78.9%
same,"viability, T/C","second compound 0.1 µM, first compound 0.1 µM",40.5%
same,"viability, T/C",[4],28.3%
same,"viability, T/C","second compound 0.1 µM, first compound 1 µM",22.6%
same,"viability, T/C","second compound 0.1 µM, first compound 3.16 µM",23.9%
same,"viability, T/C","second compound 0.1 µM, first compound 10 µM",15.4%
same,"viability, T/C",[5],80.9%
same,"viability, T/C","second compound 0.316 µM, first compound 0.1 µM",45.6%
same,"viability, T/C",[6],24.6%
same,"viability, T/C","second compound 0.316 µM, first compound 1 µM",25.5%
same,"viability, T/C","second compound 0.316 µM, first compound 3.16 µM",25.4%
same,"viability, T/C","second compound 0.316 µM, first compound 10 µM",14.7%
same,"viability, T/C",[7],81.8%
same,"viability, T/C","second compound 1 µM, first compound 0.1 µM",40.2%
same,"viability, T/C",[8],24.8%
same,"viability, T/C","second compound 1 µM, first compound 1 µM",23.5%
same,"viability, T/C","second compound 1 µM, first compound 3.16 µM",23.6%
same,"viability, T/C","second compound 1 µM, first compound 10 µM",17.6%
same,"viability, T/C",[9],78.4%
same,"viability, T/C","second compound 3.16 µM, first compound 0.1 µM",38.2%
same,"viability, T/C",[10],22.3%
same,"viability, T/C","second compound 3.16 µM, first compound 1 µM",25.8%
same,"viability, T/C","second compound 3.16 µM, first compound 3.16 µM",23.5%
same,"viability, T/C","second compound 3.16 µM, first compound 10 µM",15.3%
same,"viability, T/C",[11],74.9%
same,"viability, T/C","second compound 10 µM, first compound 0.1 µM",32.2%
same,"viability, T/C",[12],22.9%
same,"viability, T/C","second compound 10 µM, first compound 1 µM",23.1%
same,"viability, T/C","second compound 10 µM, first compound 3.16 µM",24.7%
same,"viability, T/C","second compound 10 µM, first compound 10 µM",16.2%
Cn1ncnc1[C@H]1c2n[nH]c(=O)c3cc(F)cc(c23)N[C@@H]1c1ccc(F)cc1 + Cc1[nH]c2ccc(F)cc2c1-c1nc2c3cccnc3c3ncccc3c2[nH]1,IC50,second compound 0.0316 µM,> 316 nM
same,IC50,second compound 0.1 µM,> 316 nM
same,IC50,second compound 0.316 µM,305 nM
same,IC50,second compound 1 µM,> 316 nM
same,IC50,second compound 3.16 µM,> 316 nM
same,IC50,second compound 10 µM,> 316 nM
same,"viability, T/C","second compound 0.0316 µM, first compound 0.000999 µM",105%
same,"viability, T/C","second compound 0.0316 µM, first compound 0.00316 µM",93.4%
same,"viability, T/C","second compound 0.0316 µM, first compound 0.00999 µM",103%
same,"viability, T/C",[1],88%
same,"viability, T/C","second compound 0.0316 µM, first compound 0.0999 µM",69.8%
same,"viability, T/C",[2],57.3%
same,"viability, T/C","second compound 0.1 µM, first compound 0.000999 µM",90.4%
same,"viability, T/C","second compound 0.1 µM, first compound 0.00316 µM",96.2%
same,"viability, T/C","second compound 0.1 µM, first compound 0.00999 µM",87.6%
same,"viability, T/C",[3],86.9%
same,"viability, T/C","second compound 0.1 µM, first compound 0.0999 µM",73.2%
same,"viability, T/C",[4],56.7%
same,"viability, T/C","second compound 0.316 µM, first compound 0.000999 µM",109%
same,"viability, T/C","second compound 0.316 µM, first compound 0.00316 µM",90.3%
same,"viability, T/C","second compound 0.316 µM, first compound 0.00999 µM",95.2%
same,"viability, T/C",[5],89.8%
same,"viability, T/C","second compound 0.316 µM, first compound 0.0999 µM",65.4%
same,"viability, T/C",[6],50%
same,"viability, T/C","second compound 1 µM, first compound 0.000999 µM",94.6%
same,"viability, T/C","second compound 1 µM, first compound 0.00316 µM",94.5%
same,"viability, T/C","second compound 1 µM, first compound 0.00999 µM",96.3%
same,"viability, T/C",[7],88%
same,"viability, T/C","second compound 1 µM, first compound 0.0999 µM",66%
same,"viability, T/C",[8],51%
same,"viability, T/C","second compound 3.16 µM, first compound 0.000999 µM",88.6%
same,"viability, T/C","second compound 3.16 µM, first compound 0.00316 µM",90.4%
same,"viability, T/C","second compound 3.16 µM, first compound 0.00999 µM",96.2%
same,"viability, T/C",[9],78%
same,"viability, T/C","second compound 3.16 µM, first compound 0.0999 µM",67.7%
same,"viability, T/C",[10],50%
same,"viability, T/C","second compound 10 µM, first compound 0.000999 µM",85.3%
same,"viability, T/C","second compound 10 µM, first compound 0.00316 µM",77.7%
same,"viability, T/C","second compound 10 µM, first compound 0.00999 µM",88.8%
same,"viability, T/C",[11],81.8%
same,"viability, T/C","second compound 10 µM, first compound 0.0999 µM",65.4%
same,"viability, T/C",[12],50.9%
